Ends that are not written are not given here. * marks the point of attachment. Myristoyl = CCCCCCCCCCCCCC(=O)*
Tests used:
[1] = test system: non-small cell lung cancer (NSCLC); conditions: NSCLC patients, compared to chemotherapies, before resistance appears; cited from earlier work
[2] = test system: nasal epithelial monolayers (Mucilair human primary nasal epithelial cells); assay: FITC insulin permeabilization (apical to basolateral) across epithelial monolayer; assay type: cell-based; conditions: peptide 50 μM, apical side, compared to control (vehicle), FIG. 2
Excerpt: To assess the potential effects of peptides of the invention on the permeabilization of therapeutic molecules, FITC Insulin (Sigma-Aldrich, Buchs SG, Switzerland) is used as a model for assessing paracellular drug transport (apical to basolateral) across the epithelial monolayer.
Mucilair™ human primary nasal and bronchial epithelial cells (Epithelix sarl, Geneva, Switzerland) and Caco-2 human intestinal epithelial cells are used (Huang et. al., 2013, Toxicol. in Vitro 27: 1151-1156).
Before each experiment, the culture medium is removed from each compartment and the monolayer is washed once with 200 μl of saline (0.9%) and once with warm Hanks' Balanced Salt Solution (HBSS) (37° C.). In the basolateral compartment, 600 μL of pre-warmed HBSS is placed and the cells are returned to the incubator at 37° C. for 30 minutes to equilibrate. After equilibration, the peptides of the invention and the paracellular marker (FITC insulin) are applied to the apical side of an epithelial monolayer. Peptides P4 (SEQ ID NO: 2) and P3 (SEQ ID NO: 4) according to the invention are tested in comparison with a comparative peptide CP4 (SEQ ID NO: 3).
All peptides are used at a final concentration of 50 μM. The vehicle is used as a control (CTRL). The FD solution is added to the apical compartment to make a final volume of 200 μl. […] The fluorescence of FD is measured in black 96-well plates using a fluorescence plate reader (BioTek Synergy Mx plate reader, BioTek Instruments GmbH, Lucerne, Switzerland), using excitation and emission wavelengths of 485 and 520 nm, respectively. Cumulative release (ng) corresponds to the actual amount of drug released cumulatively and corresponds to the amount in the suspension medium at any time plus the amount of the drug lost during each sampling.

[3] = test system: Mucilair human primary nasal epithelial cells; assay: Trans-epithelial electrical resistance (TEER), epithelial integrity; assay type: cell-based; conditions: peptide 100 μM, apical, FIG. 1
Experimental: Trans-epithelial electrical resistance (TEER): After addition of 200 μl of culture medium to the apical compartment of the tissue cultures, resistance is measured across cultures with an EVOMX volt-ohm-meter (World Precision Instruments UK, Stevenage) in triplicate for each time point. The TEER values (Ω) is converted normalized by using the following formula: TEER (Ω cm^2)=(resistance value (Ω)−100 (Ω))×0.33 (cm^2), where 100Ω is the resistance of the membrane and 0.33 cm^2 is the total surface of the epithelium.
To assess the potential effects of peptides of the invention on the epithelial integrity, transepithelial electrical resistance in the presence of a peptide of the invention is measured. Trans-epithelial electrical resistance (TEER) was measured as in Example 2 except that volt-ohm-meter was equipped with STX-2 chopstick electrodes (WPI, Sarasota, Fla., USA). Mucilair™ human primary nasal epithelial cells were used as in Example 2 (from single donor; EP01-Batch number MD069201). The peptide P4 (SEQ ID NO: 2) and comparative peptide […] both at a concentration of 100 μM in Mucilair™ medium and control solution (i.e., 50 μl of saline+50 μl of Mucilair™ medium) were administered to the apical compartment of the tissue cultures at the begging of the experiment (t=0) and the measurements were made after 20, 40, 60 and 80 minutes (t=20 min, t=40 min, t=60 min and t=80 min) of the incubation. All TEER values are expressed as percentage relative to control (the baseline value was 242 Ω*cm^2). All the experiments were performed at least 2 times (test 1 and 2).

Row | Compound | progression free survival (PFS) [1] | permeabilization of FITC-conjugated insulin (cumulative release) [2] | TEER values (percentage relative to control) ([3]; t=20 min) | TEER values (percentage relative to control) ([3]; t=40 min and t=60 min) | TEER values (percentage relative to control) ([3]; t=80 min)
1 | COc1cc2ncnc(Nc3ccc(F)c(Cl)c3)c2cc1OCCCN1CCOCC1 [Gefitinib, N-(3-Chloro-4-fluorophenyl)-7-methoxy-6-(3-morpholinopropoxy) quinazolin-4-amine] | 7.7-12.9 months |  |  |  | 
2 | Myr-D-Ala D-Arg D-Arg D-Trp D-Arg [Peptide P3] |  | increased the permeabilization of insulin FITC to a much larger extend than the control peptide CP4 |  |  | 
3 | Myr-D-Ala D-Lys D-Arg D-Trp D-Arg [Peptide P4] |  | increased the permeabilization of insulin FITC to a much larger extend than the control peptide CP4 | decreased TEER values as compared to control solution and comparative peptide P4 (CP4) | this effect persisted | TEER values increased as compared to values measured at previous time points
4 | Myr-AKRWR (Myristoyl-AKRWR) [CP4, comparative peptide, L-amino acid version of P4, reference compound] |  | slightly increased the permeabilization |  |  | 

— patent US20210253635A1, “PEPTIDIC PROTEIN KINASE C INHIBITORS AND USES THEREOF” (UNIVERSITE DE GENEVE, priority 2018, published 2021)
